Results published in PubChem BioAssay AID179 (DTP/NCI, 2004).
Activity calls are given as the source filed them.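 Rule for the calls: active = compounds giving half or more protection of infected cells from virus-caused growth loss, again on retest; inactive = the rest.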 *1 amine or outer side, *2 acyl side, *3 side chain or, on linkers, in order; H or OH if unused. Where a SMILES comes first, the peptide text is derived from it. [ ]: non-standard residue; d: D form. The star is where a group is joined. X21 = NC(=O)CCC(CN[*:1])C(=O)[*:2]; Cbz = O=C(OCc1ccccc1)*; Bn = c1ccc(C*)cc1

Tested on: CEM cells HIV-1 protection, formazan growth assay
Experiment: NCI AIDS Antiviral Assay
Details: for IC50: measured here: growth of uninfected CEM cells
Outline: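 Protection of CEM cells against HIV-1 was scored from cell growth (soluble formazan) across five concentrations, with parallel uninfected cells. Lack of protection may reflect toxicity.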

Compound | EC50 [µM] | IC50 [µM] | outcome
CC(=O)N1C(=O)CC(c2ccccc2)Sc2ccccc21 (stereo not given) | > 151 | > 151 | 
CN1CCCC(CC2c3ccccc3Sc3ccccc32)C1 (stereo not given) | > 200 | 12.3 | 
C=CCCCCOC1C=CC(OC(C)=O)C(COC(C)=O)O1 (stereo not given) | > 200 | > 200 | 
CC(=O)Nc1ccc(S(=O)(=O)Nc2ccc([N+](=O)[O-])cc2)cc1 | > 200 | > 200 | inactive
O=C(CC/C(CC(=O)c1ccc(Cl)cc1)=N/O)Nc1ccc(Cl)c(Cl)c1 | > 437 | > 437 | 
c1ccc2c(c1)Sc1ccccc1N2CCCN1c2ccccc2Sc2ccccc21 | > 50.1 | > 50.1 | 
CC1=C(C(=O)NCc2ccccc2)C(c2ccc(C3C(C(=O)NCc4ccccc4)=C(C)NC(C)=C3C(=O)NCc3ccccc3)cc2)C(C(=O)NCc2ccccc2)=C(C)N1 | > 12 | 7.94 | 
COC(=O)[C@]1(C)CCC[C@]2(C)C3CC4OOC3(C=C4C(C)C)CCC21 (stereo not given in full) | > 251 | 11.5 | 
COC(=O)c1ccccc1SSCCN | > 200 | 19.1 | 
CS(=O)(=O)c1cc([N+](=O)[O-])c(C(N)=O)cc1N(CCCl)CCCl | > 200 | > 200 | 
N#CC(C#N)=C(N)/C(C#N)=C/c1ccc2[nH]ccc2c1 | > 200 | > 200 | 
CCN(CC)C(=S)N/N=C/c1cc(OC)ccc1O | > 200 | 10 | 
CCOc1ccc(NCC(=O)N2CC(=O)Nc3ccccc32)cc1 | > 22.4 | > 22.4 | 
C=C(C(=C)P(=S)(C(C)C)C(C)C)P(=S)(C(C)C)C(C)C | > 74.1 | > 74.1 | 
Cc1ccc(S(=O)c2cccs2)cc1 (stereo not given) | > 1120 | 182 | 
CCOC(=O)C1c2[nH]c3ccccc3c2CCN1C(=O)c1ccco1 (stereo not given) | > 77.6 | > 77.6 | 
Cc1[nH]c2ccccc2c1C(=O)CC1(O)C(=O)Nc2c(Cl)cc(Cl)cc21 (stereo not given) | > 339 | 158 | 
CCOC(=O)C1SC(=Nc2cccc(Cl)c2C)N=C1C (stereo not given) | 6.03 | 60.3 | 
O=C1N=C(SC2OC(CO)C(O)C(O)C2O)S/C1=C\c1ccccc1 (stereo not given) |  |  | inactive
CC(=O)NC(C(=O)N1CCCC1C(=O)O)C(C)C (stereo not drawn) (Ac-Val-Pro-OH; configuration not given here) | > 200 | > 200 | 
Cc1cc(C(=O)CCCCOc2ccc(C3=NCCO3)cc2)c(C)n1C |  |  | inactive
N#C/C(=C\c1ccc(F)cc1)C(=O)O | > 263 | > 263 | 
O=S(=O)(O)c1ccc2cc(S(=O)(=O)O)ccc2c1 |  |  | inactive
O=C1C(=O)N(c2ccc(Cl)cc2)C(=O)C(=O)C1c1nc2ccccc2o1 |  |  | inactive
O=[N+]([O-])c1ccc(N=Nc2ccc3c(c2)-c2ccccc2C3=P(c2ccccc2)(c2ccccc2)c2ccccc2)cc1 | > 200 | 33.1 | 
CCSc1nnc(-c2ccccc2)nc1Cc1ccc(OC)cc1 | > 14.8 | > 14.8 | 
O=C(Nc1ccccc1)N(C1=NCC(CI)S1)c1ccc(F)c(F)c1 (stereo not given) | > 200 | 18.2 | 

Compound | EC50 [µM] | IC50 [µM] | outcome
O=C(CC(C(=O)c1ccsc1)c1ccsc1)c1ccsc1 (stereo not given) | > 200 | 22.4 | 
O=C(O)CC(=O)Nc1ccccc1S | > 200 | > 200 | 
C=C1C(=O)O[C@H]2C1C[C@H](O)[C@@]1(C)OC1CC[C@@]1(C)O[C@H]21 (stereo not given in full) | > 200 | 6.61 | 
COc1ccc(NC2C(=O)C3(C)CCC2C3(C)C)cc1 (stereo not given) |  |  | inactive
CCCC(=O)N[C@H]1C2C3CC4C5CC(C42)C1(C)C53 (stereo not given in full) | > 275 | > 275 | 
O=C1C(c2ccccc2)=[N+]([O-])c2cc([N+](=O)[O-])ccc21 |  |  | inactive
CC(C)(N=NC(C)(C)C(=N)N)C(=N)N | > 200 | > 200 | 
COc1ccc(C[C@H]2COC(=O)[C@@H]2Cc2ccc3c(c2)OCO3)cc1OC | > 200 | 19.1 | 
CCOP(=O)(OCC)/C(C#N)=C/c1ccoc1 | > 977 | > 977 | 
O=C1Sc2cc3c(cc2C(=O)N2CCCC12)OCO3 (stereo not given) | > 182 | 129 | 
Cc1ccc2c(c1)C1(c3ccc(Cl)cc3)Oc3ccc(C)cc3C(c3ccc(Cl)cc3)(O2)O1 | > 75.9 | > 75.9 | 
CC(=O)Oc1c(C)cc2c(c1C)C(C)(C)CN2C(=O)C(C)(C)C | > 200 | 66.1 | 
CCn1c(C)nc([N+](=O)[O-])c1Sc1ncc[nH]1 | > 977 | 17.8 | 
O=c1cc(/C=C/c2ccccc2)c2ccc(O/C(=C\c3ccccc3)c3nc4ccccc4c(=O)o3)cc2o1 |  |  | inactive
Cc1cccc(N2CC3CC4C=CC3(C2)O4)c1 (stereo not given) | > 200 | > 200 | 
CCC(C)C(NC(=O)C(CCC(N)=O)NC(=O)C1CCCN1)C(=O)NC(C(=O)NC(CC(C)C)C(=O)NC(Cc1c[nH]c2ccccc12)C(=O)NCC(CCC(N)=O)C(=O)NC(CCCN=C(N)N)C(=O)N1CCCC1C(=O)NC(CC(C)C)C(=O)O)C(C)O (stereo not given) (H-PQITLW[X21]RPL-OH; configuration not given here) |  |  | inactive
CCOP(=O)(OCC)C(C#N)Cc1ccco1 (stereo not given) | 41.7 | > 200 | 
COc1cc(C[C@H]2c3cc(OC)c(OC)cc3CCN2C)c(Oc2cc3c(cc2OC)-c2c(OC)c(OC)cc4c2[C@H](C3)N(C)CC4)cc1OC |  |  | inactive
O=C(CC(=O)N(C(=O)c1ccccc1)c1ccc(Cl)cc1)N/N=C\c1cc(N=Nc2ccccc2Cl)ccc1O | > 100 | > 100 | 
O=S1(=O)CS(=O)(=O)OCCCCO1 | > 1070 | 63.1 | 
CCOC(=O)NC(=O)c1cn(CC(=O)NCC(=O)NCC(=O)NCCCN2CCN(CCCNC(=O)CNC(=O)CNC(=O)Cn3cc(C(=O)NC(=O)OCC)c(=O)[nH]c3=O)CC2)c(=O)[nH]c1=O |  |  | inactive
Cc1c(N)nc(C(CC(N)=O)NCC(N)C(N)=O)nc1C(=O)NC(C(=O)NC(C)C(O)C(C)C(=O)NC(C(=O)NCCc1nc(-c2nc(C(=O)NCCCNCCCCN)cs2)cs1)C(C)O)C(OC1OC(CO)C(O)C(O)C1OC1OC(CO)C(O)C(OC(N)=O)C1O)c1cnc[nH]1 (stereo not given) |  |  | inactive
COC(=O)C(Cc1ccc(O)cc1)NC(=O)C(COCc1ccccc1)NC(=O)OCc1ccccc1 (stereo not given) (Cbz-Ser(Bn)-Tyr-OMe; configuration not given here) | > 200 | 30.2 | 
Cc1cc2c(=O)c3ccc(Cl)cc3[nH]c2c(C(=O)O)c1C |  |  | inactive
O=C(NCCCCCCCCCCCCNC(=O)c1cnc2ccccc2n1)c1cnc2ccccc2n1 | > 4.9 | > 4.9 | 
COc1ccc2cc1Oc1ccc(cc1)CC1=NCCc3cc(OC)c(cc31)Oc1c(OC)c(OC)c(OC)c3c1[C@H](C2)N(C)CC3 |  |  | inactive
O=C1NC(=S)N/C1=C\c1ccco1 | > 200 | 105 | 

Compound | EC50 [µM] | IC50 [µM] | outcome
CCOC(=O)c1c(CN2CCNCC2)nc2ccc(Cl)cc2c1-c1ccccc1 | > 63.1 | 33.9 | 
COc1ccc(-c2ccccc2)c2[nH]c3c(c12)CCNC3=O |  |  | inactive
Cc1nnc2n1N=C1CC(C)(C)CC(=O)C1S2 (stereo not given) | > 105 | > 105 | 
CN1C(=O)Nc2ncn(C)c2S1(=O)=O | > 603 | > 603 | 
COc1cc2ccc(=O)oc2c2c1OC(C)(C)[C@H](OC(=O)C13CCC(C)(C(=O)O1)C3(C)C)[C@@H]2OC(=O)C12CCC(C)(C(=O)O1)C2(C)C (stereo not given in full) | > 200 | > 200 | 
CC1(C)Oc2ccccc2N2O[C@@H]3C(=O)N(c4ccccc4)C(=O)[C@@H]3C21c1ccccc1 (stereo not given in full) |  |  | inactive
COc1ccc(/C=C2\N=C3Sc4c(nc[nH]c4=O)N3C2=O)cc1 | > 200 | > 200 | 
COc1ccc(C(O)/C(=C/n2ccnc2)c2ccccc2)cc1OC (stereo not given) | > 537 | > 537 | 
COC(=O)C(C)(C)C(OP(=S)(N(C)C)N(C)C)=C(C)C | > 22.4 | > 22.4 | 
Cc1cc2c(c3oc(=O)cc(C)c13)[C@@H](OC(=O)C13CCC(C)(C(=O)O1)C3(C)C)[C@@H](OC(=O)C13CCC(C)(C(=O)O1)C3(C)C)C(C)(C)O2 (stereo not given in full) | 0.912 | > 200 | 
Cc1ccc(C2=Nc3ccccc3SC(c3cccc4c3OCO4)C2)cc1 (stereo not given) | > 14.1 | > 14.1 | 
CCOC#CCCOCc1ccccc1 | > 66.1 | > 66.1 | 
Cn1c(=O)nc2n(-c3ccc(F)cc3)c3ccccc3nc-2c1=O |  |  | inactive
Cc1ccc(C(=O)O)c(/C=C2\Cc3ccc(C)cc3C2=O)c1 | > 200 | 97.7 | 
CC1(C)N=C(c2ccccc2)C2(c3ccccc3)N1C2(C)C (stereo not given) | > 234 | 224 | 
COC1C2CC3C4(CCC5C6(C)CCCC53C(C14)N(C)C6)CC21CCC23C4C=C5C6=C(CCC5(CC42)C3O1)C1(C)CC(C6)CN(C)C1 (stereo not given) | 0.38 | 18.6 | 
CCOC(=O)C(Cc1c(C=O)[nH]c2ccccc12)(NC(=O)c1ccccc1)C(=O)OCC |  |  | inactive
C=CC[C@@]12CCC(=O)C=C1CCCC2=O |  |  | inactive
COP(=O)(OC)C(=O)N1N(c2ccc([N+](=O)[O-])cc2)C(=O)C(C)NC1(NNc1ccc([N+](=O)[O-])cc1)P(=O)(OC)OC (stereo not given) | > 107 | 56.2 | 
CN1C(=O)N(C)C2(CCN(CC(CC3OCCO3)c3ccc(F)cc3)CC2)C1=O (stereo not given) | > 200 | > 200 | 
C[N+](C)(CCCCCC[N+](C)(C)C1c2ccccc2-c2ccccc21)C1c2ccccc2-c2ccccc21 | > 200 | 182 | 
O=Cc1cc(O)c(O)c(O)c1-c1c(C=O)cc(O)c(O)c1O | > 174 | 34.7 | 
CN(C)c1ccc(/C=C(\NC(=O)c2ccccc2)C(=O)NC(Cc2c[nH]c3ccccc23)C(=O)O)cc1 (stereo not given) | > 100 | > 100 | 
Cc1c(Cl)cccc1NC(=O)/C(Cl)=C(\Cl)C(=O)O |  |  | inactive
c1ccc(Oc2cccc(Oc3ccc4c(c3)-c3nc-4nc4[nH]c(nc5nc(nc6[nH]c(n3)c3ccc(Oc7cccc(Oc8ccccc8)c7)cc63)-c3cc(Oc6cccc(Oc7ccccc7)c6)ccc3-5)c3ccc(Oc5cccc(Oc6ccccc6)c5)cc43)c2)cc1 | > 3.02 | > 3.02 | 
